Laboratory results as given in patent US20240018611A1, “IMMUNE MOLECULE VIRUS PARTICLE DETECTION KIT” (priority 2021, published 2024).

Experiments:
[1] = system: HBV; experiment: HBV DNA in supernatant of ETV-treated HepG2.2.15 cells (immune capture of virus particles + qPCR); format: cell-based, hepatitis B virus (HBV)
Protocol: (§1) The inventor selects the supernatant of HBV-secreting cells ([…] and HepAD38) for testing and verification. HepG2.2.15 and HepAD38 are the two cell lines that are commonly used in the laboratory to stably express HBV, and entecavir (ETV) is the first-line drug in clinical treatment of hepatitis B at present. The inventor uses different concentration gradients of ETV (0.1 μM, 1 μM, 10 μM, PBS as control group). Then, the virus particles are captured by virus particle-antibody (the envelope PreS1 monoclonal antibody and the core particle HBc monoclonal antibody)-biotin-streptavidin-magnetic beads, and the genomic DNA of HBV in the corresponding virus particles is detected.
(§2) In order to study the dynamic changes of HBV DNA with different components, two cell lines, HepG2.2.15 and HepAD38, which stably express HBV, are pretreated with different concentration gradients of ETV (0.1 μM, 1 μM, 10 μM and a PBS control group), and the supernatant is discarded after 24 hours, and replaced with fresh Dulbecco's modified eagle medium (DMEM) and ETV with different concentration gradients. After 72 hours, the supernatant is transferred to an EP tube, and the virus particles in the supernatant are captured by PreS1 antibody-magnetic beads and HBc antibody-magnetic beads respectively, and the captured products are detected by qPCR.
The above research results mean that the capture method can separate and capture virus particles in cell supernatant. […] The same conclusion is obtained in HepAD38 cell experiment (FIGS. 10A-10B).

[2] = system: HBV; experiment: HBV DNA in supernatant of ETV-treated HepAD38 cells (immune capture of virus particles + qPCR); format: cell-based, hepatitis B virus (HBV)
Protocol: as §1, §2

[3] = ETV 0.1 μM, 1 μM, 10 μM, PBS control, antibody-biotin-streptavidin-magnetic bead capture, FIGS. 2A-2B

C=C1[C@H](CO)[C@@H](O)C[C@@H]1n1cnc2c(=O)[nH]c(N)nc21 [ETV, entecavir]
viral genomic DNA (total, complete virus particles, core particles) in cell supernatant versus ETV concentration [1, 3]: The higher the concentration of ETV, the lower the viral genomic DNA detected by the three methods
copies of HBV DNA in the supernatant ([1]; ETV 0.1 μM, 1 μM, 10 μM, supernatant after 72 hours, PreS1/HBc antibody-magnetic bead capture, FIGS. 9A-9B): decreased in a dose-dependent manner
total HBV genomic DNA, complete virus particle genomic DNA and virus core particle DNA over time ([1]; ETV 1 uM, FIGS. 2C-2D): all decreased rapidly in two days
viral genomic DNA (total, complete virus particles, core particles) in cell supernatant versus ETV concentration [2, 3]: The higher the concentration of ETV, the lower the viral genomic DNA detected by the three methods
total HBV genomic DNA, complete virus particle genomic DNA and virus core particle DNA over time ([2]; ETV 1 uM, FIGS. 2C-2D): all decreased rapidly in two days
